Laboratory results from patent US20210077382A1, “COMPOSITIONS, DEVICES, AND METHODS FOR THE TREATMENT OF OPIOID-RECEPTOR-MEDIATED CONDITIONS” (Opiant Phamaceuticals, Inc., priority 2016, published 2021).

Experiment: Clinical pharmacokinetic crossover study of IN, IM and oral naltrexone; plasma naltrexone and 6β-naltrexol by LC-MS/MS
From the text: Study Goals. […] Secondary endpoints included adverse events (AEs), vital signs (heart rate, sitting blood pressure, and respiration rate), electrocardiogram (ECG), clinical laboratory changes and nasal irritation using the nasal irritation scale.
Study design. […] This was an in-patient open-label, crossover study involving approximately 14 healthy volunteers. […] Subjects stayed in the in-patient facility for 13 days to complete the entire study. Subjects were called 3 to 5 days after discharge to inquire concerning AEs and concomitant medications since discharge. Informed consent was obtained from all subjects, and all were screened for eligibility to participate in the study, including medical history, physical examination, clinical chemistry, coagulation markers, hematology, infectious disease serology, urinalysis, urine drug and alcohol toxicology screen, vital signs and ECG.
On days of study drug administration, a 12-lead ECG was performed approximately 1 hour prior to dosing and at approximately 1 and 4 hours post-dose. Vital signs were measured pre-dose and about 1 and 4 hours post-dose.
Study Drugs and Dosing. […] The IN (40 mg/mL) formulations were made by the staff pharmacist at Vince & Associates; the vehicle for the IN formulations was sterile water for injection. The IM formulation (2 mg/mL) was made by the staff pharmacist at Vince & Associates; the vehicle was sterile saline for injection.
Subjects stayed in the in-patient facility for 13 days to complete the entire study and were discharged 2 days after the fourth dose.
PK Assessments. […] Plasma was separated from whole blood and stored frozen at […] until assayed.
Analysis. […] Dose-adjusted values for AUCs and Cmax were calculated. The relative extent of IN and PO absorption (IN and PO versus IM) will be estimated from the dose-corrected AUCs.

Oc1ccc2c3c1O[C@H]1[C@H](O)CC[C@@]4(O)[C@@H](C2)N(CC2CC2)CC[C@]314 [6β-naltrexol]
λz of 6β-naltrexol, mean (CV %) (naltrexone 4 mg IN plus […] Intravail, N = 12): 0.0553 (15.1) 1/h
AUC0-inf of 6β-naltrexol, mean (CV %) (naltrexone 4 mg IN, N = 13): 44.0 ng·h/mL
AUC0-inf/Dose of 6β-naltrexol, mean (CV %) (naltrexone 4 mg IN, N = 13): 12.2 (23.1) h · ng/mL/mg
AUC0-t of 6β-naltrexol, mean (CV %) (naltrexone 4 mg IN, N = 13): 40.3 (23.3) h · ng/mL
AUC0-t/Dose of 6β-naltrexol, mean (CV %) (naltrexone 4 mg IN, N = 13): 11.1 (23.3) h · ng/mL/mg
AUCextrap of 6β-naltrexol, mean (CV %) (naltrexone 4 mg IN, N = 13): 8.57 (46.1) %
Cmax of 6β-naltrexol, mean (CV %) (naltrexone 4 mg IN, N = 13): 3.01 (33.2) ng/mL
Cmax/Dose of 6β-naltrexol, mean (CV %) (naltrexone 4 mg IN, N = 13): 0.833 ng/mL/mg
Tmax of 6β-naltrexol, median (minimum, maximum) (naltrexone 4 mg IN, N = 13): 2.00 h
t1/2 of 6β-naltrexol, mean (CV %) (naltrexone 4 mg IN, N = 13): 13.7 (22.7) h
λz of 6β-naltrexol, mean (CV %) (naltrexone 4 mg IN, N = 13): 0.0530 h⁻¹
Cmax/Dose of 6β-naltrexol, mean (CV %) (naltrexone 4 mg IN, N = 13, listed as 6β-Naltrexol): 0.833 (33.2) ng/mL/mg
Mean concentration of 6β-naltrexol (naltrexone 4 mg IN, hour 0): 0 ng/mL
Mean concentration of 6β-naltrexol (naltrexone 4 mg IN, hour 0.042): 0 ng/mL
Mean concentration of 6β-naltrexol (naltrexone 4 mg IN, hour 0.083): 0.0321 ng/mL
Mean concentration of 6β-naltrexol (naltrexone 4 mg IN, hour 0.17): 0.196 ng/mL
Mean concentration of 6β-naltrexol (naltrexone 4 mg IN, hour 0.25): 0.45 ng/mL
Mean concentration of 6β-naltrexol (naltrexone 4 mg IN, hour 0.33): 0.693 ng/mL
Mean concentration of 6β-naltrexol (naltrexone 4 mg IN, hour 0.5): 1.11 ng/mL
Mean concentration of 6β-naltrexol (naltrexone 4 mg IN, hour 0.75): 1.82 ng/mL
Mean concentration of 6β-naltrexol (naltrexone 4 mg IN, hour 1): 1.83 ng/mL
Mean concentration of 6β-naltrexol (naltrexone 4 mg IN, hour 2): 2.68 ng/mL
Mean concentration of 6β-naltrexol (naltrexone 4 mg IN, hour 3): 2.61 ng/mL
Mean concentration of 6β-naltrexol (naltrexone 4 mg IN, hour 4): 2.37 ng/mL
Mean concentration of 6β-naltrexol (naltrexone 4 mg IN, hour 6): 1.97 ng/mL
Mean concentration of 6β-naltrexol (naltrexone 4 mg IN, hour 8): 1.62 ng/mL
Mean concentration of 6β-naltrexol (naltrexone 4 mg IN, hour 12): 1.26 ng/mL
Mean concentration of 6β-naltrexol (naltrexone 4 mg IN, hour 16): 0.919 ng/mL
Mean concentration of 6β-naltrexol (naltrexone 4 mg IN, hour 24): 0.602 ng/mL
Mean concentration of 6β-naltrexol (naltrexone 4 mg IN, hour 30): 0.418 ng/mL
Mean concentration of 6β-naltrexol (naltrexone 4 mg IN, hour 36): 0.292 ng/mL
Mean concentration of 6β-naltrexol (naltrexone 4 mg IN, hour 48): 0.184 ng/mL
AUC0-inf of 6β-naltrexol, mean (CV %) (naltrexone 50 mg Oral, N = 10): 675 ng·h/mL
AUC0-inf/Dose of 6β-naltrexol, mean (CV %) (naltrexone 50 mg Oral, N = 10): 14.9 (19.9) h · ng/mL/mg
AUC0-t of 6β-naltrexol, mean (CV %) (naltrexone 50 mg Oral, N = 10): 614 (19.5) h · ng/mL
AUC0-t/Dose of 6β-naltrexol, mean (CV %) (naltrexone 50 mg Oral, N = 10): 13.6 (19.5) h · ng/mL/mg
AUCextrap of 6β-naltrexol, mean (CV %) (naltrexone 50 mg Oral, N = 10): 8.79 (57.3) %
Cmax of 6β-naltrexol, mean (CV %) (naltrexone 50 mg Oral, N = 10): 90.7 ng/mL
Cmax/Dose of 6β-naltrexol, mean (CV %) (naltrexone 50 mg Oral, N = 10): 2.00 ng/mL/mg
Tmax of 6β-naltrexol, median (minimum, maximum) (naltrexone 50 mg Oral, N = 10): 0.63 h
t1/2 of 6β-naltrexol, mean (CV %) (naltrexone 50 mg Oral, N = 10): 13.9 (15.9) h
λz of 6β-naltrexol, mean (CV %) (naltrexone 50 mg Oral, N = 10): 0.0510 (15.8) 1/h
Cmax/Dose of 6β-naltrexol, mean (CV %) (naltrexone 50 mg Oral, N = 10, listed as 6β-Naltrexol): 2.00 (30.3) ng/mL/mg
Mean concentration of 6β-naltrexol (naltrexone 50 mg Oral, hour 0): 0.0454 ng/mL
Mean concentration of 6β-naltrexol (naltrexone 50 mg Oral, hour 0.042): 0.0448 ng/mL
Mean concentration of 6β-naltrexol (naltrexone 50 mg Oral, hour 0.083): 1.4 ng/mL
Mean concentration of 6β-naltrexol (naltrexone 50 mg Oral, hour 0.17): 14.2 ng/mL
Mean concentration of 6β-naltrexol (naltrexone 50 mg Oral, hour 0.25): 31.6 ng/mL
Mean concentration of 6β-naltrexol (naltrexone 50 mg Oral, hour 0.33): 45.5 ng/mL
Mean concentration of 6β-naltrexol (naltrexone 50 mg Oral, hour 0.5): 68.7 ng/mL
Mean concentration of 6β-naltrexol (naltrexone 50 mg Oral, hour 0.75): 60.8 ng/mL
Mean concentration of 6β-naltrexol (naltrexone 50 mg Oral, hour 1): 58.6 ng/mL
Mean concentration of 6β-naltrexol (naltrexone 50 mg Oral, hour 2): 54 ng/mL
Mean concentration of 6β-naltrexol (naltrexone 50 mg Oral, hour 3): 45.8 ng/mL
Mean concentration of 6β-naltrexol (naltrexone 50 mg Oral, hour 4): 38 ng/mL
Mean concentration of 6β-naltrexol (naltrexone 50 mg Oral, hour 6): 28.5 ng/mL
Mean concentration of 6β-naltrexol (naltrexone 50 mg Oral, hour 8): 22.2 ng/mL
Mean concentration of 6β-naltrexol (naltrexone 50 mg Oral, hour 12): 15.4 ng/mL
Mean concentration of 6β-naltrexol (naltrexone 50 mg Oral, hour 16): 11.4 ng/mL
Mean concentration of 6β-naltrexol (naltrexone 50 mg Oral, hour 24): 8.14 ng/mL
Mean concentration of 6β-naltrexol (naltrexone 50 mg Oral, hour 30): 5.93 ng/mL
Mean concentration of 6β-naltrexol (naltrexone 50 mg Oral, hour 36): 4.35 ng/mL
Mean concentration of 6β-naltrexol (naltrexone 50 mg Oral, hour 48): 2.43 ng/mL
Dose-adjusted Cmax of 6β-naltrexol after oral administration, higher than after IN and IM doses (oral vs IN and IM): approximately 2 fold
